Patent US12447119B2, “Oral care composition” (SUNSTAR AMERICAS, INC., priority 2019, dated 2025)

Test: Solubility of surfactant in an oral care composition (statement in Experiment 4)
Format: physicochemical
Conditions: compared with a monoglyceride and diglyceride mixture
Source text: The results of Experiment 4 are shown in FIG. 5 (represented by Table 6 below), which measures the toothpaste concentration that causes 50% cell hemolysis. […] Glyceryl monostearate is harder to dissolve in an oral care composition than monoglyceride and digylceride mixtures.

SMILES: CCCCCCCCCCCCCCCCCC(=O)OCC(O)CO (stereo not shown) [Glyceryl monostearate, glyceryl monostearate]
- solubility of the surfactant in an oral care composition: less soluble than a monoglyceride and diglyceride mixture
